In PubChem BioAssay (NCI):
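Where inhibition never reached the appropriate level, the endpoint shown equals the highest concentration tested. Otherwise, values were interpolated linearly from a five-concentration, 48-hour dose response in 96-well plates. GI50 is the concentration that inhibits growth by half. Definition used: TGI = concentration required for complete inhibition of growth.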

Columns and labels:
Test in all cases: NCI anticancer screen, dose series, 48 h
SK-MEL-5 melanoma = tested on: SK-MEL-5 melanoma
CCRF-CEM leukemia = tested on: CCRF-CEM leukemia
NCI-H460 lung = tested on: NCI-H460 lung
SF-539 CNS = tested on: SF-539 CNS
KM12 colon = tested on: KM12 colon
OVCAR-3 ovarian = tested on: OVCAR-3 ovarian
UACC-257 melanoma = tested on: UACC-257 melanoma
T-47D breast = tested on: T-47D breast
PC-3 prostate = tested on: PC-3 prostate
NCI/ADR-RES ovarian = tested on: NCI/ADR-RES ovarian

| SMILES | TGI (SK-MEL-5 melanoma) | TGI (CCRF-CEM leukemia) | TGI (NCI-H460 lung) | TGI (SF-539 CNS) | TGI (KM12 colon) | TGI (OVCAR-3 ovarian) | TGI (UACC-257 melanoma) | TGI (T-47D breast) | TGI (PC-3 prostate) | TGI (NCI/ADR-RES ovarian) | GI50 (SK-MEL-5 melanoma) | GI50 (CCRF-CEM leukemia) | GI50 (NCI-H460 lung) | GI50 (T-47D breast) | GI50 (SF-539 CNS) | GI50 (KM12 colon) | GI50 (OVCAR-3 ovarian) | GI50 (NCI/ADR-RES ovarian) | GI50 (UACC-257 melanoma) | GI50 (PC-3 prostate) |
| --- | --- | --- | --- | --- | --- | --- | --- | --- | --- | --- | --- | --- | --- | --- | --- | --- | --- | --- | --- | --- |
| C1CCN2CC3CONC3C2C1 (stereo not given) | > 100 µM | > 100 µM | > 100 µM | > 100 µM | > 100 µM | > 100 µM | > 100 µM |  |  |  |  |  |  |  |  |  |  |  |  |  |
| O=c1[nH]c(=O)n(C2CC(O)C(O)C(CO)O2)cc1F (stereo not given) |  | > 100 µM | > 100 µM | > 100 µM | > 100 µM | > 100 µM | > 100 µM |  |  |  |  |  |  |  |  |  |  |  |  |  |
| O=CC(O)C(O)C(OC1OC(CO)C(O)C(O)C1O)C(O)CO (stereo not given) (tested in a mixture with another compound) | > 100 µM |  | > 100 µM | > 100 µM | 50.8 µM | > 100 µM | > 100 µM | > 100 µM | > 100 µM | > 100 µM |  |  |  |  |  |  |  |  |  |  |
| O=C(O)C1=C(C(=O)O)Oc2ccccc2O1 |  | > 100 µM | > 100 µM | > 100 µM | > 100 µM | > 100 µM | > 100 µM |  |  |  |  |  |  |  |  |  |  |  |  |  |
| Nc1ccn([C@@H]2S[C@H](CO)[C@@H](O)[C@@H]2F)c(=O)n1 | > 100 µM | > 100 µM | > 100 µM |  | > 100 µM | > 100 µM | > 100 µM | > 100 µM |  | > 100 µM | 0.178 µM | < 0.01 µM | 0.138 µM | 1.35 µM | 0.317 µM | 8.65 µM | > 51.1 µM | 0.0325 µM | 1.34 µM |  |
| O=C1c2ccccc2-c2c1c1ccc([N+](=O)[O-])cc1c(=O)n2CCCCl | 5.89 µM |  | 67.5 µM |  | > 100 µM | 77 µM | > 100 µM |  | > 100 µM | > 100 µM | 0.874 µM |  | 2.61 µM |  |  | > 100 µM | 4.91 µM | 24.1 µM | > 100 µM | 15.2 µM |
| CC(C)=CC(=O)CC(=O)C(=O)NCCNC(=O)C(=O)CC(=O)C=C(C)C |  |  | > 50 µM | > 50 µM | > 50 µM | > 50 µM | > 50 µM |  |  |  |  |  |  |  |  |  |  |  |  |  |
| Cc1c(C)c2ccc(OC(C)C(=O)O)cc2oc1=O (stereo not given) | > 100 µM | > 100 µM | > 100 µM | > 100 µM | > 100 µM | > 100 µM | > 100 µM |  |  |  |  |  |  |  |  |  |  |  |  |  |
| O=C(Nc1ccc(Br)cc1)Nc1cccc(Br)c1 | > 100 µM |  |  | > 100 µM |  |  | > 100 µM |  |  |  | > 100 µM |  |  |  | 15.3 µM |  |  |  | > 100 µM |  |
| CC1=C(C(=O)CC(=O)C(=O)Nc2ccccc2C)Sc2ccccc2N1 | > 100 µM | > 100 µM | > 56.2 µM | > 100 µM | > 100 µM | > 100 µM | > 100 µM |  |  |  |  |  |  |  |  |  |  |  |  |  |
| Cc1cc(OC(=O)c2c(C)cc(OC(=O)c3c(C)cc(O)cc3O)cc2O)cc(O)c1C(=O)O | > 100 µM | > 100 µM | > 100 µM | > 100 µM | > 100 µM | > 100 µM | > 100 µM |  |  |  |  |  |  |  |  |  |  |  |  |  |
| CC1(C)CC(O)CC(C)(C)N1.CC1(C)CC(O)CC(C)(C)N1.CC1(C)CC(O)CC(C)(C)N1.CC1(C)CC(O)CC(C)(C)N1.Cl.[Ti] | > 100 µM | > 100 µM | > 100 µM | > 100 µM | > 100 µM | > 100 µM | > 100 µM |  |  |  | > 100 µM | > 100 µM | > 100 µM |  | > 100 µM | > 100 µM | > 100 µM |  | > 100 µM |  |
